The source made the active and inactive calls.
Assays:
[1] = cytotoxicity toward DRD oncogenic fibroblasts, dose response, cell-based, non-viral oncogenic, luminescence (AID 1934); format: functional; details: Homo sapiens
[2] = biological target: T1, Heat shock factor protein 1 (Mus musculus, UniProt P38532); assay: inhibition of MG132-induced HSE-luciferase signal, confirmation, cell-based, NIH3T3, luminescence, dose retest (AID 2382); format: functional;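 note: NIH3T3 fibroblasts with HSF1-driven luciferase reporter stressed by proteasome inhibitor MG132; luminescence from HSF1-driven luciferase expression after 8 hours of MG132 stress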
T1 sequence (P38532 whole entry): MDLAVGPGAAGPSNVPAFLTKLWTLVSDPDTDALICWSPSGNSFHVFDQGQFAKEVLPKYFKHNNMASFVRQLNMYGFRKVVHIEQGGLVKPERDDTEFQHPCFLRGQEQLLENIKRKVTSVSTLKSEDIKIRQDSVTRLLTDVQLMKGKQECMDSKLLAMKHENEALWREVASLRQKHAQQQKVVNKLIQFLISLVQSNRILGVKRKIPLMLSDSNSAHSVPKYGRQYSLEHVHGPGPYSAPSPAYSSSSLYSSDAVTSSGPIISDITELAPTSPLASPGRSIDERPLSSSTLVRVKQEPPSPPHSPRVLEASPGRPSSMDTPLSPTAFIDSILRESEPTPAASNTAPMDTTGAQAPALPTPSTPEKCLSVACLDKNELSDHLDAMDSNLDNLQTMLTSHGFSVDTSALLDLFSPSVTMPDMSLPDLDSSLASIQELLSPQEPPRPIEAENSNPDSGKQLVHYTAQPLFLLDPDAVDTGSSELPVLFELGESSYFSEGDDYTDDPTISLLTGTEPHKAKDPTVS

[3] = biological target: T2, DNA repair protein RAD52 homolog (Homo sapiens, UniProt P43351); format: functional, biochemical
T2 sequence (P43351 whole entry): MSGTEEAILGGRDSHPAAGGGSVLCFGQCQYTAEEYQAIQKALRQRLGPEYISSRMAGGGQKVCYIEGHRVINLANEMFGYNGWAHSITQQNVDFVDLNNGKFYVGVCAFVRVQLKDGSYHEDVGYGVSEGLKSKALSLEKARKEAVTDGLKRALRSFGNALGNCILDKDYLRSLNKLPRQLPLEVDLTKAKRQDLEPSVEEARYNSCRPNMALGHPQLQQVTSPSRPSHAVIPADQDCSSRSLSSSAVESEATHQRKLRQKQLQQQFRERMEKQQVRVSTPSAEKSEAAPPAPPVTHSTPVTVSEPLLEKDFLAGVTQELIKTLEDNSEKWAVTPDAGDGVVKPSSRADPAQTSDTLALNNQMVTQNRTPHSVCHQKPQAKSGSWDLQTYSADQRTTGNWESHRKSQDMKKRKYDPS

[4] = test system: BJ; assay: cytotoxicity toward BJ-TERT-LT-ST fibroblasts, dose response, cell-based, RAS-independent, luminescence (AID 1935); format: functional; details: Homo sapiens;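 note: BJ fibroblasts immortalized with TERT plus LT and ST oncogenes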
[5] = biological target: Prothrombin (Bos taurus, UniProt P00735); assay: thrombin inhibition, dose response, biochemical, fluorescence polarization, uHTS hits (AID 602369); format: functional
[6] = biological target: 72 kDa type IV collagenase (Homo sapiens, UniProt P08253); assay: Dose Response validation of uHTS RPN11 inhibitor hits using a MMP-2 Fluorescence assay.; format: functional
[7] = test system: BJ; assay: cytotoxicity toward BJ-TERT fibroblasts, dose response, cell-based, RAS-independent, luminescence (AID 1933); format: functional; details: Homo sapiens
[8] = biological target: 26S proteasome non-ATPase regulatory subunit 14 (Homo sapiens, UniProt O00487); assay: inhibition of proteasome subunit RPN11 – biochemical, fluorescence polarization, uHTS hits, confirmation (AID 602368); format: functional
[9] = test system: BJ; assay: cells; format: functional, cell-based; details: Homo sapiens
[10] = test system: BJ; assay: cytotoxicity toward Ras-transformed BJeLR fibroblasts, dose response, cell-based, alamar blue fluorescence, cherrypicked samples (AID 2631); format: functional; details: Homo sapiens;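 note: confirmatory dose-response assay in RAS-dependent BJ fibroblasts engineered with TERT, LT and ST, with cytotoxicity read by fluorescence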
[11] = biological target: T3, Corticotropin-releasing factor receptor 2/Corticotropin-releasing factor-binding protein (Homo sapiens, UniProt P24387+Q13324); assay: activators of CRF receptor 2 with binding protein – uHTS hits, confirmation (AID 602473); format: functional; details: read-out: EC50_Mean
T3 sequence (Q13324 whole entry): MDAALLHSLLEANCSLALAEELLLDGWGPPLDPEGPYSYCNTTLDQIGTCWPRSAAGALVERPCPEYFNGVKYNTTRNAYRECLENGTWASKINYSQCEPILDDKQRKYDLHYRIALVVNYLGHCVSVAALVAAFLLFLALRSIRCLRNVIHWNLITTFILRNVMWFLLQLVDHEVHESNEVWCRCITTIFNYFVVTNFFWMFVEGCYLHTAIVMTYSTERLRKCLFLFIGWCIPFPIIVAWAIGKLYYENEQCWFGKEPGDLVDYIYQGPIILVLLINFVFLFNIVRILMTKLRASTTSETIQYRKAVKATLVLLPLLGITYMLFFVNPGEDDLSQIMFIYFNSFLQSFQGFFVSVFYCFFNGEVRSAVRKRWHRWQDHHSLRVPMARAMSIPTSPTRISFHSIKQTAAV
T3 sequence (P24387 whole entry): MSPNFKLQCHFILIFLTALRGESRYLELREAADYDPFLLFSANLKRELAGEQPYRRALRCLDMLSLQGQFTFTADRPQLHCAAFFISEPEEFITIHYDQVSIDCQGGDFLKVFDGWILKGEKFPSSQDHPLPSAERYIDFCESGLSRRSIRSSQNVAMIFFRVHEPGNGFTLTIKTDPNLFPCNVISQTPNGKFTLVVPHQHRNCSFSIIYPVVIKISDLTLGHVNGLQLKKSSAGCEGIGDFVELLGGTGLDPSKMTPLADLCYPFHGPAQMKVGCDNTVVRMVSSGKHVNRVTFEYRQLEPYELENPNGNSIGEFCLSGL

[12] = biological target: T4, Low molecular weight phosphotyrosine protein phosphatase (Homo sapiens, UniProt P24666); format: functional; details: read-out: IC50_Mean;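 note: Dose-response confirmation assay measuring inhibition of LMPTP enzyme activity by fluorescence intensity read-out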
T4 sequence (P24666 whole entry): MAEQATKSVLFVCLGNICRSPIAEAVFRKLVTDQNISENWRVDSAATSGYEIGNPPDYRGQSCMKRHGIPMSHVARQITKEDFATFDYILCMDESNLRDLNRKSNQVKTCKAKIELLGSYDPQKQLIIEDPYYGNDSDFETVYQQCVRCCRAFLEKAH

[13] = biological target: T3, Corticotropin-releasing factor receptor 2/Corticotropin-releasing factor-binding protein; assay: Dose Response confirmation of uHTS hits for small molecule antagonists of the CRF-binding protein and CRF-R2 receptor complex.; format: functional; details: read-out: IC50_Mean
[14] = microbe, parasite or virus in culture; format: functional; details: Mycobacterium tuberculosis
[15] = biological target: T5, Protein RecA (Mycobacterium tuberculosis, UniProt P9WHJ3); assay: Fluorescence Cell-Free Homogeneous Dose Retest to Identify Inhibitors of RecA-Intein Splicing Activity. [Related pubchem assays (depositor defined):AID2097, AID2223, AID489010, AID492950]; format: functional
T5 sequence (P9WHJ3 whole entry): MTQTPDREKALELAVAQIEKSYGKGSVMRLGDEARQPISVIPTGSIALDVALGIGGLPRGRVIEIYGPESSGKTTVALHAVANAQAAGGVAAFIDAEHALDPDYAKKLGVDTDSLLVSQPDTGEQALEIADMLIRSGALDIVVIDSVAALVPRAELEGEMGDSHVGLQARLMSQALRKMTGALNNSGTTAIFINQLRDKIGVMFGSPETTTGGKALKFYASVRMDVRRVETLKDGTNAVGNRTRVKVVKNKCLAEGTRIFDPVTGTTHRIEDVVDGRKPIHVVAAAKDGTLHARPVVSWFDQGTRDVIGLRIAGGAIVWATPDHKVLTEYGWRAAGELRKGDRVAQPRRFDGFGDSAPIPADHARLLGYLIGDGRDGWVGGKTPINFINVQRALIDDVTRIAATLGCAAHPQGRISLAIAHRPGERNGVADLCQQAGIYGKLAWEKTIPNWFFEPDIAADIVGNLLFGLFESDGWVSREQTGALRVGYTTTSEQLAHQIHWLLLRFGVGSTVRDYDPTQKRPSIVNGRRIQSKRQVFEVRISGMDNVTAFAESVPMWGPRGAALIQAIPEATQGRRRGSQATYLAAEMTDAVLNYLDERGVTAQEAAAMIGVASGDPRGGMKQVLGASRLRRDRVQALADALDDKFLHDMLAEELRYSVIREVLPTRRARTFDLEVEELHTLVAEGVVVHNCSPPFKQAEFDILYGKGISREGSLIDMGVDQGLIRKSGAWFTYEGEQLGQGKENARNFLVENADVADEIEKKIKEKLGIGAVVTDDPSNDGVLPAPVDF

[16] = growth suppression of PTEN-null colon cells, dose response, cell-based, HCT116 PTEN knockout (AID 1047); format: functional;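 note: HCT116 colon tumor cells with PTEN knocked out; cells exposed to compound for 60 hours before readout; potency for loss of cell viability measured by luminescence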
[17] = biological target: T6, Replicative DNA helicase DnaB (Mycobacterium tuberculosis, UniProt P9WMR3); assay: DnaB intein splicing inhibitors, dose response, biochemical, cell-free fluorescence (AID 449749); format: functional
T6 sequence (P9WMR3 whole entry): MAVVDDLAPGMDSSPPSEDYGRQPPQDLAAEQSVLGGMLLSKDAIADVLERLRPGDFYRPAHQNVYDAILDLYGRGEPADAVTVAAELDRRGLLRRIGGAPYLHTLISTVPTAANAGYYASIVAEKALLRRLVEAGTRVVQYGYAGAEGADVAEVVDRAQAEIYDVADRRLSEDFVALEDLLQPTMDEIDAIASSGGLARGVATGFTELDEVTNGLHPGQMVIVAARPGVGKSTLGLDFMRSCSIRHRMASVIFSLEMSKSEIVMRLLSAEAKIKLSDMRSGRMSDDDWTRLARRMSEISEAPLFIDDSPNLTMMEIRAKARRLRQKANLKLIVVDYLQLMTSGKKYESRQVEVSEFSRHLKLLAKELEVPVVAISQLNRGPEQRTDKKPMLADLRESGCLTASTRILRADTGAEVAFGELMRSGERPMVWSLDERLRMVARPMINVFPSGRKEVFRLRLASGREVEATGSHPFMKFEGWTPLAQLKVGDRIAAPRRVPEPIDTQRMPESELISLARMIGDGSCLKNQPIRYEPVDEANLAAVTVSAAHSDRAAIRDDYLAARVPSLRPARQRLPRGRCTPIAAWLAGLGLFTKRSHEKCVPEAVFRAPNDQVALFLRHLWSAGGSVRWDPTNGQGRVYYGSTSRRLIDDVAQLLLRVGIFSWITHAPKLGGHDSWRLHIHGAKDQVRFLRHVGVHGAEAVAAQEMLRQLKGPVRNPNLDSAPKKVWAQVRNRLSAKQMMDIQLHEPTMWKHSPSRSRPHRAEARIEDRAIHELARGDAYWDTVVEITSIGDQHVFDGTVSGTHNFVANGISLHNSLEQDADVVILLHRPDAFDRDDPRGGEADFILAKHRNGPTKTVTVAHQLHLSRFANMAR

[18] = biological target: Peroxisome proliferator-activated receptor gamma/Nuclear receptor coactivator 2 (Homo sapiens, UniProt P37231); format: functional;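 note: agonist potency for raising coactivator recruitment to the receptor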
[19] = growth suppression of beta-catenin-knockout colon cells, dose response, cell-based, HCT116, human colon tumor (AID 1045); format: functional;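 note: HCT116 colon tumor cells with beta catenin knocked out; cells exposed to compound for 60 hours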
[20] = biological target: Peroxisome proliferator-activated receptor gamma/Nuclear receptor coactivator 3 (Homo sapiens, UniProt P37231); format: functional;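 note: agonist potency for raising coactivator recruitment to the receptor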
[21] = biological target: Peroxisome proliferator-activated receptor gamma/Nuclear receptor coactivator 1 (Homo sapiens, UniProt P37231); format: functional;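 note: agonist potency as compounds enhance coactivator SRC-1 recruitment to PPARgamma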
[22] = test system: INS1; assay: beta cell apoptosis inhibitors, cytokine rescue, dose response, luminescence, retest (AID 449756); format: functional, cell-based; details: Rattus norvegicus;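 note: cell death triggered by IL-1 beta plus TNF-alpha plus IFN-gamma mixture; protective hits raise ATP signal compared with cytokine alone wells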
[23] = biological target: Protein Wnt-3a (Mus musculus, UniProt P27467); assay: Wnt3a-driven reporter signaling inhibition, dose response, selectivity assay for Gli-SUFU antagonist project, Wnt-LIGHT cells, luminescence (AID 651570); format: functional; details: read-out: IC50_Mean;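 note: Wnt-LIGHT reporter cells stimulated with conditioned medium from Wnt3a-producing cells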
[24] = biological target: Tyrosine-protein phosphatase non-receptor type 5 (Homo sapiens, UniProt P54829); assay: STEP phosphatase inhibitors, confirmation, biochemical, fluorescence intensity, uHTS hits (AID 602372); format: functional; details: read-out: IC50_Mean
[25] = biological target: Tyrosine-protein phosphatase non-receptor type 11 (Homo sapiens, UniProt Q06124); assay: SHP2 phosphatase inhibition, dose response, selectivity assay for STEP inhibitor project, biochemical (AID 602367); format: functional; details: read-out: IC50_Mean
[26] = biological target: Dual specificity protein phosphatase 3 (Homo sapiens, UniProt P51452); assay: VHR phosphatase inhibition, dose response, selectivity assay for STEP inhibitor project, biochemical (AID 602374); format: functional; details: read-out: IC50_Mean
[27] = biological target: T7, Mitochondrial peptide methionine sulfoxide reductase (Bos taurus, UniProt P54149); assay: Absorbance-based biochemical high throughput dose response assay for activators of Methionine sulfoxide reductase A (MsrA).; format: functional
T7 sequence (P54149 whole entry): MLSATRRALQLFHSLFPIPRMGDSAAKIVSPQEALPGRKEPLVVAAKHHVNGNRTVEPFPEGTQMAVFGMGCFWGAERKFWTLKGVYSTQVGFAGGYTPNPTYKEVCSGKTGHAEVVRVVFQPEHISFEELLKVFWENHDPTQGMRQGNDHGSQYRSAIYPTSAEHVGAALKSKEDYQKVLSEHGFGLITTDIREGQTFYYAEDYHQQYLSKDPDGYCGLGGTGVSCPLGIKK

Sequence of Peroxisome proliferator-activated receptor gamma/Nuclear receptor coactivator 2 (P37231 whole entry): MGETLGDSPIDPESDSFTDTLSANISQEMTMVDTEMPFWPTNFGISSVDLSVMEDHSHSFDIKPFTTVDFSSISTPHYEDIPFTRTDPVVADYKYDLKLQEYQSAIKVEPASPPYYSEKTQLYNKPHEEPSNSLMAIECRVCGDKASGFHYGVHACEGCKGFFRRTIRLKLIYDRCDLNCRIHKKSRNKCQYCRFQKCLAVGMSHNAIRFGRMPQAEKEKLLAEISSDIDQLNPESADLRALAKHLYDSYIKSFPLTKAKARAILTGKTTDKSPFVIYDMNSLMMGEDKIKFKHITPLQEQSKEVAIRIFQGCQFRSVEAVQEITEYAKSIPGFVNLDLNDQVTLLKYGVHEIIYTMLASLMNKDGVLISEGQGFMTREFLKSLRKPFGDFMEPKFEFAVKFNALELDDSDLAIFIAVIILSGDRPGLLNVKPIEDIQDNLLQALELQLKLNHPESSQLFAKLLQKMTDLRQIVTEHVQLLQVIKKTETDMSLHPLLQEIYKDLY
Sequence of Peroxisome proliferator-activated receptor gamma/Nuclear receptor coactivator 2 (Q15596 whole entry, further chain): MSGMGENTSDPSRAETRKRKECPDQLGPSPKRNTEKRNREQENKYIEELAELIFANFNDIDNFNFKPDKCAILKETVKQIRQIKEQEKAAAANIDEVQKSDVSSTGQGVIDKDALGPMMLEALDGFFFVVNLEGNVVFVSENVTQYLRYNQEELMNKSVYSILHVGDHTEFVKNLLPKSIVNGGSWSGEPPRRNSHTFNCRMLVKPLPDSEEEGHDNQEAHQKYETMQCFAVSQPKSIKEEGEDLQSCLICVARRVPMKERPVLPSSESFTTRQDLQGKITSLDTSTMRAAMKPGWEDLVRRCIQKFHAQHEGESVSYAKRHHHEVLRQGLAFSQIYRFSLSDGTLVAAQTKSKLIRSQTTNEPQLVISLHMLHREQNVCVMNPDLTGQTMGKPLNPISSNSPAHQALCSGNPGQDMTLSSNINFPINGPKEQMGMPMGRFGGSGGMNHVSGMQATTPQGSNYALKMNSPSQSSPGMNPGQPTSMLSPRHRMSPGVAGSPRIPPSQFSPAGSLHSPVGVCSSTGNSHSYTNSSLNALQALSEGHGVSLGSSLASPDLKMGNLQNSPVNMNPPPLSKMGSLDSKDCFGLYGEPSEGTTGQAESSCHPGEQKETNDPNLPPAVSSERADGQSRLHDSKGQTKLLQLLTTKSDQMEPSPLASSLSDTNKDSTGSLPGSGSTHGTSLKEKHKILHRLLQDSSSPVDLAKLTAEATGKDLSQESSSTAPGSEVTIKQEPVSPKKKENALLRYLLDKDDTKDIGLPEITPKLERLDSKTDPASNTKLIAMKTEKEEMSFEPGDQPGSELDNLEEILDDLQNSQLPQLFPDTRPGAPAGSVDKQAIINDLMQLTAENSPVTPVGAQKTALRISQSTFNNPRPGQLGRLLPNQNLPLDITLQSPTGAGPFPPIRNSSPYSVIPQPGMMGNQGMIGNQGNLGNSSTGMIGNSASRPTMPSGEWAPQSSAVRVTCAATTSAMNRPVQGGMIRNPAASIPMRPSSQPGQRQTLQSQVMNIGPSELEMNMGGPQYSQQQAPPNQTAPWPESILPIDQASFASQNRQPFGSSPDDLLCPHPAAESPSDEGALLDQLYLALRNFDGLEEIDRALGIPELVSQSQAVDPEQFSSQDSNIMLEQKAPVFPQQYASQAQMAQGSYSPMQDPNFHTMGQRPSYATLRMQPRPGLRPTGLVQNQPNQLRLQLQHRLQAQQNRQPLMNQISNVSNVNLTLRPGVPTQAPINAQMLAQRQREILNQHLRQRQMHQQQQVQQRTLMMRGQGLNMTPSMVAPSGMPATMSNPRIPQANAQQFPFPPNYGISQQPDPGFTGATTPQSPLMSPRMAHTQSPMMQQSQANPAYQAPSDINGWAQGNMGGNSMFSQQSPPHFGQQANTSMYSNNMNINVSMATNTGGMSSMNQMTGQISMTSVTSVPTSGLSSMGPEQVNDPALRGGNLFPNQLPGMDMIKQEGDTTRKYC
Sequence of Peroxisome proliferator-activated receptor gamma/Nuclear receptor coactivator 1 (P37231 whole entry): as the sequence (P37231 whole entry) above
Sequence of Peroxisome proliferator-activated receptor gamma/Nuclear receptor coactivator 1 (Q15788 whole entry, further chain): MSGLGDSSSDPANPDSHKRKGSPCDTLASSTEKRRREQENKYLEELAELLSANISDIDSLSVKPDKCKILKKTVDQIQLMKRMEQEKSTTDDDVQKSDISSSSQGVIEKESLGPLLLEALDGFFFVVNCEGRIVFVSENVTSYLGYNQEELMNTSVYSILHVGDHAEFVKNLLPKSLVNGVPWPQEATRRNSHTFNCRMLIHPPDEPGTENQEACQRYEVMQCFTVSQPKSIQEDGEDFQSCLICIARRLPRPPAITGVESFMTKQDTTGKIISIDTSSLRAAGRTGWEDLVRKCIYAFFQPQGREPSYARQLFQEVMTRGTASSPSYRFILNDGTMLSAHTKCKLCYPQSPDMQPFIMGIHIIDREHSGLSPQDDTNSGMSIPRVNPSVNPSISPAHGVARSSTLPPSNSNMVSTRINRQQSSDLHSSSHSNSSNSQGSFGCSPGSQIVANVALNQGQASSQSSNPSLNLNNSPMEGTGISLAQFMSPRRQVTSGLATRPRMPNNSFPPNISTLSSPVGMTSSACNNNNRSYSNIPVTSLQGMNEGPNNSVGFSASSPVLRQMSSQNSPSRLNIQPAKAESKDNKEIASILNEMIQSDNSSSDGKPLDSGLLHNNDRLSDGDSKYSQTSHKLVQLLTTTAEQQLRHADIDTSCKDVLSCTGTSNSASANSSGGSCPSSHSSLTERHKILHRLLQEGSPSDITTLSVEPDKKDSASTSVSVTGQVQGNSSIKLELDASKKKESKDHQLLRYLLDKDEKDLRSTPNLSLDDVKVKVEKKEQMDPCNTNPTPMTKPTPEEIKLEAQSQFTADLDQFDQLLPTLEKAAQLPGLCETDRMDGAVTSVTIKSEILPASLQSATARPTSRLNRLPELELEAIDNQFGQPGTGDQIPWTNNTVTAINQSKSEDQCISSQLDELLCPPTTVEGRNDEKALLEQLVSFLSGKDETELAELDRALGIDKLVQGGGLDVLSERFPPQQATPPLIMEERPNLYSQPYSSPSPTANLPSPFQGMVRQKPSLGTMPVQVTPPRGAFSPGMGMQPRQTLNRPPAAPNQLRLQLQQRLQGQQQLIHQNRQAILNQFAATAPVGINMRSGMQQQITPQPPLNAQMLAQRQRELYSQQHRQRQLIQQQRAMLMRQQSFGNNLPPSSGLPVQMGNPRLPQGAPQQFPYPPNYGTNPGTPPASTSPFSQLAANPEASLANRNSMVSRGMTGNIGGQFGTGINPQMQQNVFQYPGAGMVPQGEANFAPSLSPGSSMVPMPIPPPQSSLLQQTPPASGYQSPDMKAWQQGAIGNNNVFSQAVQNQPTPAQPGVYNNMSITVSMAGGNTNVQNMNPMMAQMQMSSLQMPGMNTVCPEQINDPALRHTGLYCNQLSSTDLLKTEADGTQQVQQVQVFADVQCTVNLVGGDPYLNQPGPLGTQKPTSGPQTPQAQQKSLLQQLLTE
Sequence of Dual specificity protein phosphatase 3 (P51452 whole entry): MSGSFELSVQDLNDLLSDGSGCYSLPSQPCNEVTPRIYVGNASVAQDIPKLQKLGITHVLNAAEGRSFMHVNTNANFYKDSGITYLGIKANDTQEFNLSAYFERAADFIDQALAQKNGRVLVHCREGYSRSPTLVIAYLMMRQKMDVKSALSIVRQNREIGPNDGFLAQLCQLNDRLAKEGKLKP
Sequence of 26S proteasome non-ATPase regulatory subunit 14 (O00487 whole entry): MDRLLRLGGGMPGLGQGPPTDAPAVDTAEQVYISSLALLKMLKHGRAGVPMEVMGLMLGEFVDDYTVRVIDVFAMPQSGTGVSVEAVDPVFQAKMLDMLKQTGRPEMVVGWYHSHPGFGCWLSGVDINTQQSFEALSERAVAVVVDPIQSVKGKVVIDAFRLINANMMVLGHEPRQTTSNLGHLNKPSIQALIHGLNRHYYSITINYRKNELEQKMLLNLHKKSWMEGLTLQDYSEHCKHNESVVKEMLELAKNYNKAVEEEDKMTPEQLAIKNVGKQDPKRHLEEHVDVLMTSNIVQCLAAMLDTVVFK
Sequence of Protein Wnt-3a (P27467 whole entry): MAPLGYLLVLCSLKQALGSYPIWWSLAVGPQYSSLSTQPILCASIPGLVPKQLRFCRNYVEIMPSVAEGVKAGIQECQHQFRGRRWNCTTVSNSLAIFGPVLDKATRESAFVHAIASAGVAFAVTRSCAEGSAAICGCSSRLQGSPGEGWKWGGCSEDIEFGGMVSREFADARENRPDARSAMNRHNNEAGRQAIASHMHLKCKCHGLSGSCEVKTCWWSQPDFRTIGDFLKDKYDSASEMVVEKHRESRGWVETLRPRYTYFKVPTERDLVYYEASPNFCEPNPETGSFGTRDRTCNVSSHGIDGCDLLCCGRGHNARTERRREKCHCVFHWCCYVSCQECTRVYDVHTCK

CCN1CCc2c(sc(NC(=O)c3cc4ccccc4cc3OC)c2C(N)=O)C1
EC50 [1]: 6.38 µM (active)
EC50 [2]: 40.7 µM (active)
AC50 [3]: 3.75 µM (active)
EC50 [4]: 4.91 µM (inconclusive)
IC50 [5]: 32.5 µM (active)
IC50 [6]: > 100 µM (inactive)
EC50 [7]: 4.46 µM (inconclusive)
IC50 [8]: 26.3 µM (active)
EC50 [9]: 5.67 µM (inconclusive)
EC50 [10]: 0.937 µM (active)

COc1ccc(Cn2c(-c3ccco3)nc3c(c(=O)c4ccccc4n3C)c2=O)cc1
EC50 [11]: > 53 µM (inactive)
IC50 [12]: 39 µM (inactive)
IC50 [13]: > 47.1 µM (inactive)

O=c1c(Cl)nc2cc(Cl)ccc2n1CCNc1ncc(C(F)(F)F)cc1Cl
EC50 [1]: 2.81 µM (inconclusive)
CC50 [14]: 11.5 µM (active)
EC50 [15]: 0.951 µM (active)
EC50 [16]: 4.75 µM (active)
AC50 [17]: > 120 µM (inactive)
EC50 [4]: 1.98 µM (active)
EC50 [18]: 20.1 µM (not active)
EC50 [7]: 2.67 µM (inconclusive)
EC50 [19]: 4.66 µM (active)
EC50 [20]: 36.3 µM (not active)
EC50 [9]: 6.1 µM (inconclusive)
EC50 [21]: 19.8 µM (not active)
EC50 [10]: 0.574 µM (inconclusive)

CC(C)C(=O)NC(=S)/C=C1/N(C)c2ccccc2C1(C)C
AC50 [22]: 7.53 µM (active)
IC50 [23]: 9.3 µM (active)

O=C(N/N=C/c1coc2ccccc2c1=O)c1cc2ccccc2o1
IC50 [24]: 35.8 µM (inactive)
IC50 [25]: 33.4 µM (inactive)
IC50 [26]: 14.1 µM (active)

COc1ccc(OC)c(/C=N/N(CCC#N)C2=NS(=O)(=O)c3ccccc32)c1
EC50 [27]: > 104 µM (inactive)

From ChEMBL document CHEMBL1201862, “PubChem BioAssay data set” (2004)
